Laboratory results: article PMC12750388, “Coumarin-1,2,3-Triazole Conjugates as Molecular Scaffolds for the Selective Induction of ROS-Driven Apoptosis in Cancer Cells in the Development of Pyruvate Kinase M2 Inhibitors” (ACS Omega, 2025)

How the values were obtained:
PKM2 = target: T1, PKM2 (Homo sapiens, UniProt P14618); assay: Quantification of ATP production from PKM2 reaction; format: biochemical; conditions: 1 × IC50 of 7f (55.13 μM)
T1 construct: purchased Sigma-Aldrich Co., St. Louis, MO, USA
T1 sequence (P14618 whole entry): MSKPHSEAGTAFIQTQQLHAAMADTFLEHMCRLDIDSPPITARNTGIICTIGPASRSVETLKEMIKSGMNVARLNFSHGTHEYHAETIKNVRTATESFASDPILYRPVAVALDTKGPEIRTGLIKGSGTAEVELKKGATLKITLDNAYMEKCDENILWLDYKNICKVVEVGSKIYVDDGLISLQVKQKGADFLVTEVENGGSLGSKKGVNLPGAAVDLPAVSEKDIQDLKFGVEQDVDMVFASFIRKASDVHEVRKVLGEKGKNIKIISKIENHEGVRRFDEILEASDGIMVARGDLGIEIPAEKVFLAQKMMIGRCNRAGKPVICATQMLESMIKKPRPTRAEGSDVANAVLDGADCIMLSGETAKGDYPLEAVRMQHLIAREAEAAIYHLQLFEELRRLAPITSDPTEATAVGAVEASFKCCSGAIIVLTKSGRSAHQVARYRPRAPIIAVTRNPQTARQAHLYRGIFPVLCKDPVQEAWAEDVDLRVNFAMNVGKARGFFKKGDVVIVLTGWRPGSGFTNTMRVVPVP
Protocol: The measurement of PKM2 activity through ATP production was conducted to confirm whether the enzymatic inhibition observed in the previous assay was indeed due to PKM2. The master mix was prepared as indicated above. In a microtube containing the master mix prepared in the presence of 1 × IC50 7f, the control received the addition of 0.5 mM PEP for 3 min. Afterward, CellTiter-Glo reagent (Promega, Madison, WI, USA) was added as indicated by the manufacturer’s instructions, and the samples were kept shielded from light for 2 min. After the specified time, the sample was taken for reading in a Turner Designs TD 2020 luminometer (Turner Designs, Sunnyvale, CA, USA).

SCC-25 = assay: MTT cell viability assay, SCC-25; format: cell-based, human
Protocol: (§1) The viability of SCC cell lines and primary human fibroblast cells was evaluated using the MTT assay to determine half maximal inhibitory concentration (IC50). Briefly, cells were grown in triplicate in 96-well plates (5 × 10^3 cells/well) until confluence. Then the medium was removed, fresh medium was added, and the cells were returned to the incubator in the presence of different compounds. DMSO at the same concentrations was used as a 100% cell viability control. After 48 h, cells were incubated with 5 mg/mL MTT reagent (3-(4,5-dimethyl-2-thiazolyl)-2,5-diphenyl-2-H-tetrazolium bromide) (Sigma-Aldrich Co., St. Louis, MO, USA) for 3.5 h. After that, formazan crystals were dissolved in MTT solvent solution (DMSO/methanol 1:1 v/v), and the absorbance at 560 nm was evaluated using an EPOCH microplate spectrophotometer (BioTek Instruments, Winooski, VT, USA) with the background absorbance at 670 nm subtracted. Each of the 12 compounds (7a–7l) was tested at six different concentrations, ranging from 6.25 to 200 μM in cancer and normal cell lines. Control (carboplatin) was tested at six different concentrations ranging from 25 μM to 800 μM in cancer cells and from 50 μM to 1600 μM in normal cells.
(§2) Half-maximal inhibitory concentration (IC50) values were obtained from the MTT assay of at least three independent replicates through nonlinear regression analysis using GraphPad Prism 5.0 software (Intuitive Software for Science, San Diego, CA, USA). Data were presented as means ± standard deviation (SD). A log dose–response curve (inhibitor vs response) using the least-squares method was used to determine the IC50 and SD from the data. The selectivity index (SI) was calculated as the ratio between the IC50 in normal cells and the IC50 in cancer cells, obtained by dividing the IC50 of normal cells by the IC50 of cancer cells.

4T1 = assay: MTT cell viability assay, 4T1; format: cell-based, murine
SCC-9 cells = assay: Cell cycle and sub-G1 analysis by flow cytometry; format: cell-based, human
Protocol: The interference of 7f in the cell cycle (G1, […], and G2/M) and DNA fragmentation (sub-G1) was assessed by flow cytometry analysis using a Guava Muse Cell Analyzer (Cytek Biosciences, Fremont, CA, USA). DNA staining was conducted using a pH 7.6 propidium iodide buffer composed of 3.4 mM Trizma Hydrochloride (Sigma-Aldrich Co., St. Louis, MO, USA), 10 mM NaCl (Sigma-Aldrich Co., St. Louis, MO, USA), 0.1% (v/v) NP40 (Sigma-Aldrich Co., St. Louis, MO, USA), 700 U/L RNase, and 0.075 mM propidium iodide (Sigma-Aldrich Co., St. Louis, MO, USA). An amount of 1 × 10^5 and 5 × 10^5 SCC-9 cells were seeded in six-well plates for the treatment with the negative control (DMSO) and 7f, respectively. […] Cells were then trypsinized and stained with propidium iodide buffer. DNA content was analyzed by collecting 10,000 events in the aforementioned cytometer. Data were analyzed using Flowing Software (Turku Biosciences, Turku, Finland).

erythrocytes = assay: Hemolysis assay; format: cell-based; conditions: human erythrocytes, 300 μM
Protocol: (§3) A hemolysis assay to evaluate surfactant effects of tested substances was performed using human blood approved by the Research Ethics Committee of Universidade Federal Fluminense (CAAE: 43134721.4.0000.5626). Erythrocytes are isolated upon three repeated centrifugation cycles at 1500 rpm for 15 min. Between each cycle of centrifugation, supernatant was removed, and a pH 7.5 PBS (phosphate-buffered saline) solution supplemented with 10 mM glucose was added to remove lysed erythrocytes. The number of cells was determined in an Automatic Cell Counter (Thermo Fisher, Waltham, MA, USA). Erythrocytes were then plated in 96-well plates at a concentration of 4 × 10^8 cells/well in triplicates, and 10 μL of compounds were added at a final concentration of 300 μM in PBS with glucose (final volume 100 μL). Ten μL of PBS was used as a negative control, and 10 μL of PBS with 0.1% Triton X-100 was used as a positive control. Data reading was performed with EPOCH (BioTek Instruments, Winooski, VT, USA) at an absorbance of 540 nm.

Hemolysis assay = format: cell-based; conditions: isolated human erythrocytes, pH 7.5, read-out: level of hemolysis
Protocol: as §3

Hep-G2 = assay: MTT cell viability assay, Hep-G2; format: cell-based, human
SCC-9 cell line = assay: MTT cell viability assay, SCC-9; format: cell-based, human
Protocol: as §1, §2

HCT116 = assay: MTT cell viability assay, HCT116; format: cell-based, human
[1] = versus human gingival fibroblast

Structure (SMILES): O=C1C=C(OCc2cn(CCCOc3cc(=O)oc4ccccc34)nn2)C(=O)c2ccccc21 [Compound 7f, 2-((1-(3-((2-Oxo-2H-chromen-4-yl)oxy)propyl)-1H-1,2,3-triazol-4-yl)methoxy)naphthalene-1,4-dione]
- inhibition at 55.13 µM (PKM2): ~50%
- IC50 (SCC-25; Homo sapiens, SCC-25, MTT, 48 h): 11.1 µM
- SI SCC-25 (SCC-25; IC50 human gingival fibroblast / IC50 SCC-25): 2.05
- IC50 (4T1; Mus musculus, 4T1, MTT, murine breast cancer): 7.63 µM
- SI 4T1 (4T1; [1]): 2.98
- S-phase arrest versus control (DMSO) (SCC-9 cells; SCC-9, 2 × IC50, 24 h): approximately twice as frequent as in the control group
- cell cycle S population (SCC-9 cells; SCC-9, 2 × IC50, 24 h (DMSO 12.33%)): 22.99%
- cell cycle G2/M population (SCC-9 cells; SCC-9, 2 × IC50, 24 h (DMSO 22.59%)): 14.45%
- cell cycle G1 population (SCC-9 cells; SCC-9, 2 × IC50, 24 h (DMSO 64.99%)): 62.31%
- Sub-G1 population (DNA fragmentation) (SCC-9 cells; SCC-9, 2 × IC50, 48 h (DMSO 5.04%)): 29.84%
- increase in the sub-G1 population (SCC-9 cells; SCC-9, 48 h, versus DMSO): 5 fold
- hemolytic activity / membrane integrity (erythrocytes): lack of significant hemolytic activity
- hemolysis at 300 µM (Hemolysis assay): ~5%
- IC50 (Hep-G2; HepG2, MTT, human hepatocellular carcinoma): 16 µM
- SI Hep-G2 (Hep-G2; [1]): 1.42
- IC50 (SCC-9 cell line; Homo sapiens, SCC-9, MTT, 48 h): 12.3 µM
- SI SCC-9 (SCC-9 cell line; IC50 human gingival fibroblast / IC50 SCC-9): 1.85
- IC50 (HCT116; HCT-116, MTT, human colon carcinoma): 6.72 µM
- SI HCT116 (HCT116; [1]): 3.38
